Experimental data reported in patent publication US6335350B1, “Acetamide and substituted acetamide-containing thiourea inhibitors of herpes viruses” (American Home Products Corporation, priority 1998, dated 2002).
Values after ≈ are worked out from the molar mass of the structure shown.

What was measured:
[1] = system: HSV-1; assay: HSV Antiviral (ELISA) Assay; assay type: cell-based, herpes simplex virus type 1; conditions: Human alphaherpesvirus 1, Vero, Vero cells, HSV-1; read-out: IC50 Ug/ml HSV
Method in brief: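 Replication measured as glycoprotein D signal in fixed cells: anti-gD antibody plus β-galactosidase-linked secondary, fluorogenic substrate read at 365/450 nm. Vero cells (2% FBS DMEM) received compound 30 min pre-infection, HSV-1 MOI 0.006, ~24 h incubation; IC50 relative to no-compound fluorescence.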

[2] = system: HCMV wild-type; assay: HCMV yield assay; assay type: cell-based, human cytomegalovirus; conditions: Human betaherpesvirus 5, Fibroblast, human foreskin fibroblasts; read-out: IC50 Ug/ml HCMV
Method in brief: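 Value is the compound amount cutting virus yield titer by 50% (IC50) or 90% (IC90). Human foreskin fibroblasts infected with wild-type HCMV (MOI typically 0.2) under varying compound; progeny harvested day 3, titered compound-free on fibroblasts, plaques scored at 2 weeks.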

[3] = system: VZV strain Ellen; assay: VZV Antiviral (ELISA) Assay; assay type: cell-based, varicella-zoster virus; conditions: Human alphaherpesvirus 3, Fibroblast, human foreskin fibroblast cells; for IC50: read-out: IC50 Ug/ml VZV; for inhibition at 10 µg/mL: read-out: % inhibition 10 ug/ml VZV, 10 ug/ml
Method in brief: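 HFF cells infected with VZV Ellen at low multiplicity (<0.1) overnight were seeded at 3.5×10^4 cells/well in DMEM with 2% FBS plus compound and incubated three days at 37° C., 5% CO2. Viral replication was read by ELISA against glycoprotein II with β-galactosidase fluorogenic readout (ex 365/em 450 nm); IC50 relative to no-compound fluorescence.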

| SMILES | IC50 [1] | IC50 [2] | IC50 [3] | inhibition at 10 µg/mL [3] |
| --- | --- | --- | --- | --- |
| COc1c(C)cc(NC(=S)Nc2ccc(NC(C)=O)cc2)cc1Cl [Example 877, N-{4-[3-(3-Chloro-4-methoxy-5-methyl-phenyl)-thioureido]-phenyl}-acetamide] | 30 µg/mL (≈ 82.4 µM) | 2 µg/mL (≈ 5.5 µM) | > 10 µg/mL | 15% |
| CC(=O)Nc1ccc(NC(=S)Nc2ccccc2[N+](=O)[O-])cc1 [Example 878, N-{4-[3-(2-Nitro-phenyl)-thioureido]-phenyl}-acetamide] | 50 µg/mL (≈ 151 µM) | 40 µg/mL (≈ 121 µM) | > 10 µg/mL | 23% |
| CC(=O)Nc1ccc(NC(=S)Nc2ccc([N+](=O)[O-])cc2)cc1 [Example 879, N-{4-[3-(4-Nitro-phenyl)-thioureido]-phenyl}-acetamide] | > 50 µg/mL | > 10 µg/mL | > 10 µg/mL | 16% |
| COc1ccc(Cl)c(NC(=S)Nc2ccc(NC(C)=O)cc2)c1 [Example 881, N-{4-[3-(2-Chloro-5-methoxy-phenyl)-thioureido]-phenyl}-acetamide] | 40 µg/mL (≈ 114 µM) | > 50 µg/mL | > 10 µg/mL | 12% |
| CC(=O)Nc1ccc(NC(=S)Nc2cc(Cl)c(OCC(N)=O)c(Cl)c2)cc1 [Example 882, 2-{4-[3-(4-Acetylamino-phenyl)-thioureido]-2,6-dichloro-phenoxy}-acetamide] | > 50 µg/mL | > 50 µg/mL | > 10 µg/mL | 15% |
| COC(=O)COc1c(Cl)cc(NC(=S)Nc2ccc(NC(C)=O)cc2)cc1Cl [Example 883, {4-[3-(4-Acetylamino-phenyl)-thioureido]-2,6-dichloro-phenoxy}-acetic acid methyl ester] | 50 µg/mL (≈ 113 µM) | > 10 µg/mL | > 10 µg/mL | 17% |
| CCOC(=O)COc1c(Cl)cc(NC(=S)Nc2ccc(NC(C)=O)cc2)cc1Cl [Example 884, {4-[3-(4-Acetylamino-phenyl)-thioureido]-2,6-dichloro-phenoxy}-acetic acid ethyl ester] | > 50 µg/mL | > 10 µg/mL | > 10 µg/mL | 21% |
| CC(=O)Nc1ccc(NC(=S)Nc2cc(Cl)c(Oc3ccccc3)c(Cl)c2)cc1 [Example 885, N-{4-[3-(3,5-Dichloro-4-phenoxy-phenyl)-thioureido]-phenyl}-acetamide] | 15 µg/mL (≈ 33.6 µM) | > 10 µg/mL | > 10 µg/mL | 45% |
| CC(=O)Nc1ccc(NC(=S)Nc2cc(Cl)c(OCC#N)c(Cl)c2)cc1 [Example 886, N-(4-{3-[3,5-Dichloro-4-(2-nitrilo-ethoxy)-phenyl]-thioureido}-phenyl)-acetamide] | 25 µg/mL (≈ 61.1 µM) | 10 µg/mL (≈ 24.4 µM) | > 15 µg/mL | 50% |
| CC(=O)Nc1ccc(NC(=S)Nc2cc(Cl)c(OCC(=O)OC(C)(C)C)c(Cl)c2)cc1 [Example 887, {4-[3-(4-Acetylamino-phenyl)-thioureido]-2,6-dichloro-phenoxy}-acetic acid tert-butyl ester] | 45 µg/mL (≈ 92.9 µM) | > 10 µg/mL | > 10 µg/mL | 38% |
| CC(=O)Nc1ccc(NC(=S)Nc2ccc(C)c(Cl)c2)cc1 [Example 889, N-{4-[3-(3-Chloro-4-methyl-phenyl)-thioureido]-phenyl}-acetamide] | 2 µg/mL (≈ 5.99 µM) | 1.2 µg/mL (≈ 3.59 µM) | > 10 µg/mL | 1% |
| CC(=O)Nc1ccc(NC(=S)Nc2cc(Cl)ccc2C)cc1 [Example 890, N-{4-[3-(5-Chloro-2-methyl-phenyl)-thioureido]-phenyl}-acetamide] | 20 µg/mL (≈ 59.9 µM) | 35 µg/mL (≈ 105 µM) | > 10 µg/mL | 20% |
| CC(=O)Nc1ccc(NC(=S)Nc2cc(Cl)c(C)c(Cl)c2)cc1 [Example 892, N-{4-[3-(3,5-Dichloro-4-methyl-phenyl)-thioureido]-phenyl}-acetamide] | 10 µg/mL (≈ 27.2 µM) | 1 µg/mL (≈ 2.72 µM) | > 10 µg/mL | 25% |
| COc1c(I)cc(NC(=S)Nc2ccc(NC(C)=O)cc2)c(OC)c1I [Example 893, N-{4-[3-(3,5-Diiodo-2,4-dimethoxy-phenyl)-thioureido]-phenyl}-acetamide] | 20 µg/mL (≈ 33.5 µM) | 7 µg/mL (≈ 11.7 µM) | 2.5 µg/mL (≈ 4.19 µM) | 76% |
| COc1c(Br)cc(NC(=S)Nc2ccc(NC(C)=O)cc2)c(OC)c1Br [Example 894, N-{4-[3-(3,5-Dibromo-2,4-dimethoxy-phenyl)-thioureido]-phenyl}-acetamide] | 12 µg/mL (≈ 23.8 µM) | 7 µg/mL (≈ 13.9 µM) | > 10 µg/mL | 56% |
| COc1ccc(NC(=S)Nc2ccc(NC(C)=O)cc2)c(OC)n1 [Example 896, N-{4-[3-(2,6-Dimethoxy-pyridin-3-yl)-thioureido]-phenyl}-acetamide] | 12 µg/mL (≈ 34.6 µM) | > 50 µg/mL | > 10 µg/mL | 17% |
| CC(=O)Nc1ccc(NC(=S)Nc2cc(Cl)c(OCCOC(C)=O)c(Cl)c2)cc1 [Example 897, Acetic acid 2-{4-[3-(4-acetylamino-phenyl)-thioureido]-2,6-dichloro-phenoxy}-ethyl ester] | 40 µg/mL (≈ 87.7 µM) | > 10 µg/mL | > 10 µg/mL | 33% |
| CC(=O)Nc1ccc(NC(=S)Nc2ccc(C(=O)O)c(Cl)c2)cc1 [Example 898, 4-[3-(4-Acetylamino-phenyl)-thioureido]-2-chloro-benzoic acid] | > 50 µg/mL | > 50 µg/mL | > 10 µg/mL | 0% |
| CC(=O)Nc1ccc(NC(=S)Nc2ccc(C#N)c(Cl)c2)cc1 [Example 899, N-{4-[3-(3-Chloro-4-cyano-phenyl)-thioureido]-phenyl}-acetamide] | 10 µg/mL (≈ 29 µM) | > 10 µg/mL | > 10 µg/mL | 7% |
| CC(=O)Nc1ccc(NC(=S)Nc2cc(Cl)c(-n3cccc3)cc2Oc2ccc(Cl)cc2)cc1 [Example 900, N-(4-{3-[5-Chloro-2-(4-chloro-phenoxy)-4-pyrrol-1-yl-phenyl]-thioureido}-phenyl)-acetamide] | > 10 µg/mL | 2 µg/mL (≈ 3.91 µM) | 2.5 µg/mL (≈ 4.89 µM) | 124% |
| CC(=O)Nc1ccc(NC(=S)Nc2ccc(Cl)c(Cl)c2)cc1 [Example 901, N-{4-[3-(3,4-Dichloro-phenyl)-thioureido]-phenyl}-acetamide] | 1.5 µg/mL (≈ 4.23 µM) | 2.5 µg/mL (≈ 7.06 µM) | > 10 µg/mL | 1% |
| CC(=O)Nc1ccc(NC(=S)Nc2ccc(F)c(Cl)c2)cc1 [Example 902, N-{4-[3-(3-Chloro-4-fluoro-phenyl)-thioureido]-phenyl}-acetamide] | 4 µg/mL (≈ 11.8 µM) | 12 µg/mL (≈ 35.5 µM) | > 10 µg/mL | 1% |
| CC(=O)Nc1ccc(NC(=S)Nc2ccc(I)c(Cl)c2)cc1 [Example 903, N-{4-[3-(3-Chloro-4-iodo-phenyl)-thioureido]-phenyl}-acetamide] | 10 µg/mL (≈ 22.4 µM) | 0.3 µg/mL (≈ 0.673 µM) | > 10 µg/mL | 26% |
| CC(=O)Nc1ccc(NC(=S)Nc2ccc(Br)c(Cl)c2)cc1 [Example 904, N-{4-[3-(4-Bromo-3-chloro-phenyl)-thioureido]-phenyl}-acetamide] | 4 µg/mL (≈ 10 µM) | 1 µg/mL (≈ 2.51 µM) | > 10 µg/mL | 26% |
| CC(=O)Nc1ccc(NC(=S)Nc2ccc(N(CCO)CCO)c(Cl)c2)cc1 [Example 905, N-[4-(3-{4-[Bis-(2-hydroxy-ethyl)-amino]-3-chloro-phenyl}-thioureido)-phenyl]-acetamide] | > 50 µg/mL | > 50 µg/mL | > 10 µg/mL | 36% |
| CCCCCCN(C)c1ccc(NC(=S)Nc2ccc(NC(C)=O)cc2)cc1Cl [Example 906, N-(4-{3-[3-Chloro-4-(hexyl-methyl-amino)-phenyl]-thioureido}-phenyl)-acetamide] | > 10 µg/mL | 1.5 µg/mL (≈ 3.46 µM) | > 10 µg/mL | 32% |
| CC(=O)Nc1ccc(NC(=S)Nc2ccc(N(C)CC(C)C)c(Cl)c2)cc1 [Example 907, N-(4-{3-[3-Chloro-4-(isobutyl-methyl-amino)-phenyl]-thioureido}-phenyl)-acetamide] | > 10 µg/mL | 3 µg/mL (≈ 7.41 µM) | > 10 µg/mL | 19% |
| CC(=O)Nc1ccc(NC(=S)Nc2ccc(C(F)(F)F)c(Cl)c2)cc1 [Example 908, N-{4-[3-(3-Chloro-4-trifluoromethyl-phenyl)-thioureido]-phenyl}-acetamide] | > 10 µg/mL | 0.6 µg/mL (≈ 1.55 µM) | > 10 µg/mL | 36% |
| CC(=O)Nc1ccc(NC(=S)Nc2ccc(-c3ccno3)c(Cl)c2)cc1 [Example 924, N-{4-[3-(3-Chloro-4-isoxazol-5-yl-phenyl)-thioureido]-phenyl}-acetamide] | > 10 µg/mL | 0.9 µg/mL (≈ 2.33 µM) | > 10 µg/mL | 4% |
| CC(=O)Nc1ccc(NC(=S)Nc2ccc(-c3cc[nH]n3)c(Cl)c2)cc1 [Example 925, N-(4-{3-[3-Chloro-4-(1H-pyrazol-3-yl)-phenyl]-thioureido}-phenyl)-acetamide] | > 10 µg/mL | 3.5 µg/mL (≈ 9.07 µM) | > 10 µg/mL | 32% |
